Assay [1] has as its target T1, Tyrosine-protein phosphatase non-receptor type 1 (Homo sapiens) (UniProt P18031).
T1 sequence (whole entry): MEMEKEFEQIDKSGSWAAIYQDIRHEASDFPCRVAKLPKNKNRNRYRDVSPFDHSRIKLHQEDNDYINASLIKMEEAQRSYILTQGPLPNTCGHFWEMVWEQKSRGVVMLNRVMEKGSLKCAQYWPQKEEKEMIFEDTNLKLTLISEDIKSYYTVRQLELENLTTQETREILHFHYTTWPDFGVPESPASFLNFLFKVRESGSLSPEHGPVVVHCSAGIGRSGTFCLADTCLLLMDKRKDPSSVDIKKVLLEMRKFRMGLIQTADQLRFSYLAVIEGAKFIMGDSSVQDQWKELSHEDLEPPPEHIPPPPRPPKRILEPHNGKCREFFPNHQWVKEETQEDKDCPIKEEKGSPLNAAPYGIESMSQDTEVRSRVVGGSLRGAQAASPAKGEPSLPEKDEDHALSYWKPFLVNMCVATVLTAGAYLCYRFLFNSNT
The assay is described as follows: Inhibition of Homo sapiens (human) recombinant PTP1B assessed as decrease in free phosphate release at 10 uM by malachite staining relative to control.

The target in assay [2] is T2, Tyrosine-protein phosphatase non-receptor type 1 (Rattus norvegicus) (UniProt P20417).
T2 sequence (whole entry): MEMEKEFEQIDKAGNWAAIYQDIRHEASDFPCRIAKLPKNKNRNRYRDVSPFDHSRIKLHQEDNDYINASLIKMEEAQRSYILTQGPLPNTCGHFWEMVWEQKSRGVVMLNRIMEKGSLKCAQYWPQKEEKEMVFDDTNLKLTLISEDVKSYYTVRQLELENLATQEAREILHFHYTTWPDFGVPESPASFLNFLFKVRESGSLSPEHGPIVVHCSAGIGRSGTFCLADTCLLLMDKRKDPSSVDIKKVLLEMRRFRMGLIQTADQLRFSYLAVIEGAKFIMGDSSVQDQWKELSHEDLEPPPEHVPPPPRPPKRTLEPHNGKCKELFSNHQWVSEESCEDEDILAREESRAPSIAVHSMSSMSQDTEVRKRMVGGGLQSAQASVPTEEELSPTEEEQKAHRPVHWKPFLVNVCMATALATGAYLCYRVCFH
The assay is described as follows: Inhibition of PTP1B in Rattus norvegicus (rat) L6 cells assessed as increase in 2-deoxy-D-[U-14C]-glucose uptake at 50 uM after 18 hr relative to control. Type of assay: cell-based.

`O=C(CSc1nc2c([N+](=O)[O-])cccc2[nH]1)Nc1cc(C(=O)O)ccc1Cl`: the inhibition in assay [1] amounted to 36.6%; in assay [2] it was 37.6%.
On the same counts, the results for `O=C(CSc1nc2ccccc2s1)Nc1ccc(C(=O)O)cc1` are 66.4% and 39.6%.
Turning to `COc1cccc2[nH]c(SCC(=O)Nc3cc(C(=O)O)ccc3Cl)nc12`, the inhibition in assay [1] came to 62.7%; in assay [2] it was 26.6%.
The like results for `O=C(CSc1nc2ccccc2s1)Nc1cccc(C(=O)O)c1` were, in that order, 24.2% and 59.2%.
On the same counts, the results for `O=C(CSc1nc2ccccc2[nH]1)Nc1cc(C(=O)O)ccc1Cl` are 35.8% and 28.7%.
The like results for `O=C(CSc1nc2ccccc2s1)Nc1cc(C(=O)O)ccc1O` were, in that order, 53.9% and 29.2%.
For `O=C(CSc1nc2ccccc2[nH]1)Nc1cc(C(=O)O)ccc1O`, the inhibition in assay [1] was found to be 23.2%; in assay [2] it was 58.6%.
On the same counts, the results for `Cc1cccc2[nH]c(SCC(=O)Nc3cc(C(=O)O)ccc3Cl)nc12` are 20.9% and 31.4%.
With `O=C(CSc1nc2ccccc2[nH]1)Nc1ccc(C(=O)O)cc1`, the inhibition turned out to be 18.7% in assay [1] and 22.5% in assay [2].
As to `O=C(CSc1nc2ccccc2s1)Nc1cc(C(=O)O)ccc1Cl`, the inhibition in assay [1] is 56.2%; in assay [2] it was 28.7%.

The record behind these values is ChEMBL document CHEMBL3045484, “Molecular modeling and synthesis of ZINC02765569 derivatives as protein tyrosine phosphatase 1B inhibitors: lead optimization study” (Med Chem Res, 2013).
